Assay results taken from publication PMC11787452, “Substrate and inhibitor specificity of Plasmodium nucleoside transporters ENT1 orthologs” (The Journal of Biological Chemistry, 2024).
“And” between values parts separate entries of the source, which are not always exact repeats. Equal entries are not always repeated. Where two headings read alike, the source gives them in different places. One block for each compound: values may come before it.

Assays:
PfENT1 [1] = molecular target: T1, PfENT1 (Plasmodium falciparum, UniProt Q8IDM6); experiment: ITC binding to PfENT1; settings: for Kd: 25 °C, 25 mM MES pH 6.0, 150 mM NaCl, 0.05% DDM
T1 construct: 10xHis (N); made in house; host or cells: Sf9 insect cells (baculovirus)
Procedure: (§1) All the constructs were subcloned and inserted into a modified pFastBac with an N-terminal 10 × His tag. The baculovirus was generated in DH10Bac for recombinant protein expression. After 72 h of infection, Sf9 insect cells were harvested. For structural determination of the PfENT1 protein, Sf9 cells were solubilized in buffer containing 25 mM MES (pH 6.0), 150 mM NaCl, 2% (w/v) n-dodecyl-β-D-maltopyranoside (DDM), and protease inhibitor cocktail (0.8 μM aprotinin, 2 μM pepstatin, and 5 μg/ml leupeptin) at 4 °C for 2 h. After centrifugation at 18,000 rpm for 45 min at 4 °C, the detergent-soluble supernatant was collected via centrifugation at 4 °C for 60 min and incubated with Ni-NTA resin (QIAGEN) at 4 °C for 20 min. The resin was further washed with 25 mM MES pH 6.0, 150 mM NaCl, 10 mM imidazole, and 0.05% (w/v) DDM and eluted with buffer containing 25 mM MES pH 6.0, 150 mM NaCl, 300 mM imidazole, and 0.05% (w/v) DDM. The protein was further purified via size-exclusion chromatography (Superdex 200 Increase 10/300; GE Healthcare) in buffer containing 25 mM MES (pH 6.0), 150 mM NaCl, and 0.05% (w/v) DDM. The peak fractions were pooled and concentrated to 10∼50 μM for the nucleoside-binding assay. The protein purification of the bacterial nucleoside transporter NupG was performed as described in previous studies ([35]).
(§2) […] binding to ENTs was measured at 25 °C via a MicroCal PEAQ-ITC. The purified ENT protein was concentrated to 25 to 50 μM for ITC experiments. The nucleoside was diluted to 5 mM via the same buffer employed for protein purification, which consisted of 25 mM MES (pH 6.0), 150 mM NaCl, and 0.05% DDM. The inhibitor was diluted to 250 μM via the same buffer employed for protein purification, which consisted of 25 mM MES (pH 6.0), 150 mM NaCl, and 0.05% DDM. All the titrations were repeated three times.

[2] = molecular target: T2, bacterial nucleoside transporter NupG (Escherichia coli, UniProt P0AFF4); experiment: ITC binding to NupG
T2 construct: made in house
T2 sequence (P0AFF4 1-418): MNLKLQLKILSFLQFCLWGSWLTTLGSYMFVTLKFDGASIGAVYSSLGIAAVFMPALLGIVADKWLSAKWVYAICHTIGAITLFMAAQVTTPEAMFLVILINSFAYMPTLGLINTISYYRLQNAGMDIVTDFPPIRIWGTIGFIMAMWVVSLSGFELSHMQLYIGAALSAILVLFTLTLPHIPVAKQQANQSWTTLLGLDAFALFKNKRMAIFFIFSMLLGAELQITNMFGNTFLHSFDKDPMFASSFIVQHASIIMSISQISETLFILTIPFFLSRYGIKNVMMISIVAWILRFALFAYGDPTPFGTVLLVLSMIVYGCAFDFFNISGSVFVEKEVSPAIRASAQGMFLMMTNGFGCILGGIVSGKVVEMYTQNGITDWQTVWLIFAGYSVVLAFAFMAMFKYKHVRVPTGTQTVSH
Procedure: as §1, with “The protein purification of the bacterial nucleoside transporter NupG was performed as described in previous studies ([35]).” left out
(§3) […] binding to ENTs was measured at 25 °C via a MicroCal PEAQ-ITC. […]

PfENT1M389L = molecular target: T3, PfENT1M389L (Plasmodium falciparum, UniProt Q8IDM6, M389L); experiment: ITC binding to PfENT1M389L; settings: for Kd: Kd (binding to PfENT1M389L), 25 °C, pH 6.0
T3 construct: 10xHis (N); made in house; host or cells: Sf9 insect cells (baculovirus)
Procedure: as §1, §2

PvENT1 = molecular target: T4, PvENT1 (Plasmodium vivax, UniProt A5K8B0); experiment: ITC binding to PvENT1; settings: for Kd: 25 °C, 25 mM MES pH 6.0, 150 mM NaCl, 0.05% DDM, read-out: Kd (binding affinity for PvENT1)
T4 construct: 10xHis (N); made in house; host or cells: Sf9 insect cells (baculovirus)
T4 sequence (A5K8B0 1-416): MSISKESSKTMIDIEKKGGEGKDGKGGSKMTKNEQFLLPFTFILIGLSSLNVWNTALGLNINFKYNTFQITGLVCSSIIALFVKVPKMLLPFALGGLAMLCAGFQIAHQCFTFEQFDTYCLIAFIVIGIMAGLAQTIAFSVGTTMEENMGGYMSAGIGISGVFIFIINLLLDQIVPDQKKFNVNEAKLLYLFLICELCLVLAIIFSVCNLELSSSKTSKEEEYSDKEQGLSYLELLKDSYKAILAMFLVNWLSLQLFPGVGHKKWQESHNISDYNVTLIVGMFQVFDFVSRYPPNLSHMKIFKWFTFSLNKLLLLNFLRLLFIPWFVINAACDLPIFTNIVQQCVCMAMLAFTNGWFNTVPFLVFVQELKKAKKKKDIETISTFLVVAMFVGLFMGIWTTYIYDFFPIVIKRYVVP
Procedure: as §1, §2

PbENT1 = molecular target: T5, PbENT1 (Plasmodium berghei, UniProt A0A509AYF4); experiment: ITC binding to PbENT1; settings: for Kd: 25 °C, 25 mM MES pH 6.0, 150 mM NaCl, 0.05% DDM, read-out: Kd (binding affinity for PbENT1)
T5 construct: 10xHis (N); made in house; host or cells: Sf9 insect cells (baculovirus)
T5 sequence (A0A509AYF4 1-412): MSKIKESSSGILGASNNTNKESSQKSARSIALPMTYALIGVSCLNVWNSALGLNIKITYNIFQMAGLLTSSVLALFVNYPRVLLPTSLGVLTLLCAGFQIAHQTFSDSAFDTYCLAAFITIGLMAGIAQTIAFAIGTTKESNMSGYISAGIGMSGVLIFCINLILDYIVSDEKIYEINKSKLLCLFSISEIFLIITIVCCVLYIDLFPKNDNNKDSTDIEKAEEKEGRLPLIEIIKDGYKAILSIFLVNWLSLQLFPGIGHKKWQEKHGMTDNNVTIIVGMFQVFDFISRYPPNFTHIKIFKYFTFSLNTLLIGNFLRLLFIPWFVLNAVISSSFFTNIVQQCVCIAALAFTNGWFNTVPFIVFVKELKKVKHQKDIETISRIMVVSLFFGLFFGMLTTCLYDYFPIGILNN
Procedure: as §1, §2

HepG2 cells = experiment: Cytotoxicity assay (Cell Counting Kit-8) on HepG2 cells; type: cell-based; settings: 1.5 to 400 μM, 48 h, compared with GSK4, GSK4-1, GSK4-2
Procedure: (§4) HepG2 and 293T cells were obtained from ATCC and cultured in Dulbecco’s modified Eagle’s medium supplemented with 10% fetal bovine serum and 1% penicillin-streptomycin (Gibco). Cells were maintained at 37 °C in a humidified atmosphere containing 5% CO2. Cells were seeded at a density of 5 × 10^3 cells per well in 96-well plates and allowed to adhere for 24 h before treatment. Cells were treated with the test compounds at concentrations ranging from 1.5 to 400 μM for 48 h. Control wells were treated with an equivalent concentration of DMSO (vehicle control). Cell viability was assessed using the Cell Counting Kit-8. After 48 h of treatment, 10 μl of Cell Counting Kit-8 solution was added to each well, and the plates were incubated for 2 h at 37 °C. The absorbance was measured at 450 nm using a microplate reader. Cell viability was expressed as a percentage of the control group, and IC50 values were calculated using nonlinear regression analysis (GraphPad Prism 8.0). Data are presented as mean ± SD from three independent experiments, each performed in triplicate.

293T cells = experiment: Cytotoxicity assay (Cell Counting Kit-8) on 293T cells; type: cell-based; settings: 1.5 to 400 μM, 48 h, compared with GSK4, GSK4-1, GSK4-2
Procedure: as §4

PbENT1L388M = molecular target: T6, PbENT1L388M (Plasmodium berghei, UniProt A0A509AYF4, L388M); experiment: ITC binding to PbENT1L388M
T6 construct: 10xHis (N); made in house; host or cells: Sf9 insect cells (baculovirus)
Procedure: as §1, with “The protein purification of the bacterial nucleoside transporter NupG was performed as described in previous studies ([35]).” left out
as §3

PfENT1 [3] = molecular target: T1, PfENT1; parameters: method as in PMID 36977719; settings: competition assay; cited from earlier work
PbENT1C43S = molecular target: T7, PbENT1C43S (Plasmodium berghei, UniProt A0A509AYF4, C43S); experiment: ITC binding to PbENT1C43S
T7 construct: 10xHis (N); made in house; host or cells: Sf9 insect cells (baculovirus)
Procedure: as §1, §2

PfENT1S49C = molecular target: T8, PfENT1S49C (Plasmodium falciparum, UniProt Q8IDM6, S49C); experiment: ITC binding to PfENT1S49C
T8 construct: 10xHis (N); made in house; host or cells: Sf9 insect cells (baculovirus)
Procedure: as §1, with “The protein purification of the bacterial nucleoside transporter NupG was performed as described in previous studies ([35]).” left out
as §3

T6 sequence (A0A509AYF4 whole entry L388M): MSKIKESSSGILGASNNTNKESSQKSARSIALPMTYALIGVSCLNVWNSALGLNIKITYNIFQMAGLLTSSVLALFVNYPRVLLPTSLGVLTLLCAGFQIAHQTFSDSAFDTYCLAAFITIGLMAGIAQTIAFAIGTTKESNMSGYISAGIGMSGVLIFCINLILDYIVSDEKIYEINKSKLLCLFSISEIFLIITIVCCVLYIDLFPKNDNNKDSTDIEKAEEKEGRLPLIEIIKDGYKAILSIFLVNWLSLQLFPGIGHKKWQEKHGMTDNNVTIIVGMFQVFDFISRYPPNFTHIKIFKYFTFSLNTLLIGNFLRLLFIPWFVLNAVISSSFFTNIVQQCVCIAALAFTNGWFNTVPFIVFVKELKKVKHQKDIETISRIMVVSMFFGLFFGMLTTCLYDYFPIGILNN
T3 sequence (Q8IDM6 whole entry M389L): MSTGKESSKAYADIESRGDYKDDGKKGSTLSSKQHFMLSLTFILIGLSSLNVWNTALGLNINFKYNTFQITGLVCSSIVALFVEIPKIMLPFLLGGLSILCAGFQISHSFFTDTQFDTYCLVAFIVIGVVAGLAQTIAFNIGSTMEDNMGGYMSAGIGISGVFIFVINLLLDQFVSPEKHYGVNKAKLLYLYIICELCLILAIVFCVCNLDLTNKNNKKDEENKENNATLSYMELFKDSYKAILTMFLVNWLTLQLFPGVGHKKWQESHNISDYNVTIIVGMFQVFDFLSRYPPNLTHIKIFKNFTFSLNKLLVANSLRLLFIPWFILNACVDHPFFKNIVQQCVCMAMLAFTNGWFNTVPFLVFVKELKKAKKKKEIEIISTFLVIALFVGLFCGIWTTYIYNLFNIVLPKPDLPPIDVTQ
T1 sequence (Q8IDM6 whole entry): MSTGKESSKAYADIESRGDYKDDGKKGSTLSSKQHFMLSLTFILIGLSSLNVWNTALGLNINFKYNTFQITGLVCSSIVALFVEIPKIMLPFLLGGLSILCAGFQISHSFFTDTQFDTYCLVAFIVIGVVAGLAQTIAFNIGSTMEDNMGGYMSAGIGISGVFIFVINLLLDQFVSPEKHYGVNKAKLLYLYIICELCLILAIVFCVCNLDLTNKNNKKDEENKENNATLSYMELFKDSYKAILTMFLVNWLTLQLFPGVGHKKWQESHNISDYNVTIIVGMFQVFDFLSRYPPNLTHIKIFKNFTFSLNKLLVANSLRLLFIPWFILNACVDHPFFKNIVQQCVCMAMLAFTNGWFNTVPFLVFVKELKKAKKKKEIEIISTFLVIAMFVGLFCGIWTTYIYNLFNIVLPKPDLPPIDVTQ
T7 sequence (A0A509AYF4 whole entry C43S): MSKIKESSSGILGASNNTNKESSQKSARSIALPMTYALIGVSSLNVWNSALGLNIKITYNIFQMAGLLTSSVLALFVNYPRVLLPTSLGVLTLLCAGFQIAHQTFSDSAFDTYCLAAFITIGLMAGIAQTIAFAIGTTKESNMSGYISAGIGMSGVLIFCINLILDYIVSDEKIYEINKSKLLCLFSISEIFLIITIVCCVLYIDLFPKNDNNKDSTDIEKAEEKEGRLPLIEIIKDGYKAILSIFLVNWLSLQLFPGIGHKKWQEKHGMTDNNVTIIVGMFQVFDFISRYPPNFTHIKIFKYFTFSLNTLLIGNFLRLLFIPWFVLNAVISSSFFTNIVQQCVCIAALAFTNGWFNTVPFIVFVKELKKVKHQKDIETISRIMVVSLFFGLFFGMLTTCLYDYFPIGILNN
T8 sequence (Q8IDM6 whole entry S49C): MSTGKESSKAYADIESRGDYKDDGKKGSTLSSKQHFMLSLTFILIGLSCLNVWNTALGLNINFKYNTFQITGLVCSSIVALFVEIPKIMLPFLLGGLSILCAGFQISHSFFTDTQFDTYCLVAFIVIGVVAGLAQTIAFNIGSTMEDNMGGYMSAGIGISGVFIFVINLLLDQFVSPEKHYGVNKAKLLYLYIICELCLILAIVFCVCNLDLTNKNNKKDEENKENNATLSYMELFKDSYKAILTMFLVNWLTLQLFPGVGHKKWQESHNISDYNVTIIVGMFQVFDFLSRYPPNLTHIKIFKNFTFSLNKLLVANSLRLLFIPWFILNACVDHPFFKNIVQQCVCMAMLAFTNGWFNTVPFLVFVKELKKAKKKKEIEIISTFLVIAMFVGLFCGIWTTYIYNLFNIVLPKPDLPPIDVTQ

SMILES: Cc1oc(-c2ccc(Cl)cc2)nc1C(=O)NCCN1CCCCCC1=O [GSK4-1]
- decrease in binding affinity for PfENT1 (versus GSK4) (PfENT1 [1]): 3.5 fold

SMILES: Cc1oc(-c2ccccc2Cl)nc1C(=O)NCCN1CCCCCC1=O [GSK4-2]
- decrease in binding affinity for PfENT1 (versus GSK4) (PfENT1 [1]): 1.6 fold

SMILES: O=C(NCCN1CCCCCC1=O)c1nc(-c2ccccc2)oc1C1CC1 [GSK4-3]
- binding to NupG (in words) [2]: cannot bind
- Kd (PfENT1 [1]; read-out: Kd (binding affinity for PfENT1)): 21.9 nM and 13.4 nM and 16.4 nM
- increase in binding affinity for PfENT1M389L compared with parent compound GSK4 (PfENT1M389L): 6 fold
- Kd (PfENT1M389L): 44.4 nM
- binding affinity for PvENT1 (in words) (PvENT1): comparable binding
- Kd (PvENT1): 57.2 nM and 37.6 nM and 30.8 nM
- binding affinity for PbENT1 (in words) (PbENT1): negligible binding
- cytotoxicity (in words) (HepG2 cells): lower cytotoxicity
- cytotoxicity (in words) (293T cells): lower cytotoxicity

SMILES: Cc1oc(-c2ccccc2)nc1C(=O)NCCN1CCCCCC1=O [GSK4]
- Kd (PfENT1 [1]; Kd (binding affinity for PfENT1)): 38.1 nM and 51.9 nM and 48.1 nM
- binding affinity of PfENT1M389L relative to PfENT1WT (PfENT1M389L): five times weaker
- Kd (PfENT1M389L): 234 nM and 317 nM and 276 nM
- Kd (PvENT1): 54.3 nM and 37.2 nM and ~47.2 nM and 47.2 nM
- Kd (PbENT1): 15400 nM and 4920 nM and 12600 nM
- binding affinity of PbENT1L388M relative to PbENT1WT (PbENT1L388M): five times greater
- Kd (PbENT1L388M; Kd (binding to PbENT1L388M), 25 °C, pH 6.0): 2590 nM and 2090 nM and 2770 nM

SMILES: Nc1ncnc2c1ncn2[C@@H]1O[C@H](CO)[C@@H](O)[C@H]1O [adenosine]
- inhibition of the inosine transport activity of PfENT1 (PfENT1 [3]): effectively inhibited
- binding to PbENT1C43S (in words) (PbENT1C43S): did not show detectable adenosine binding
- thermodynamic pattern of binding to PfENT1S49C (PfENT1S49C): enthalpy-driven
- Kd (PbENT1): 38100 nM and 36600 nM and 40500 nM

- binding affinity for PbENT1 (in words) (PbENT1): No binding affinity was detected
SMILES: Nc1ccn([C@@H]2O[C@H](CO)[C@@H](O)[C@H]2O)c(=O)n1 [cytidine]
